Experimental data taken from patent US20170107229A1, “SUBSTITUTED TETRAHYDROPYRIDOTHIENOPYRIMIDINES” (BAYER PHARMA AKTIENGESELLSCHAFT, priority 2014, published 2017).
pIC50: −log10 of the molar value.

Biological target: T1, human full-length MKNK1 (Homo sapiens, UniProt Q9BUB5, T385D)
T1 construct: GST (N); purchased Carna Biosciences 02-145; host or cells: insect cells (baculovirus expression system)
Test: MKNK1 kinase high ATP assay (TR-FRET)
Assay type: biochemical
Conditions: high ATP (2 mM final), 15 min preincubation with enzyme, GST-MKNK1 (T344D)
Experimental: MKNK1-inhibitory activity at high ATP of compounds of the present invention after their preincubation with MKNK1 was quantified employing the TR-FRET-based MKNK1 high ATP assay as described in the following paragraphs.
A recombinant fusion protein of Glutathione-S-Transferase (GST, N-terminally) and human full-length MKNK1 (amino acids 1-424 and T344D of accession number BAA 19885.1), expressed in insect cells using baculovirus expression system and purified via glutathione sepharose affinity chromatography, was purchased from Carna Biosciences (product no 02-145) and used as enzyme. As substrate for the kinase reaction the biotinylated peptide biotin-Ahx-IKKRKLTRRKSLKG (C-terminus in amide form) was used, which can be purchased e.g. from the company Biosyntan (Berlin-Buch, Germany).
For the assay 50 nL of a 100fold concentrated solution of the test compound in DMSO was pipetted into a black low volume 384well microtiter plate (Greiner Bio-One, Frickenhausen, Germany), 2 μL of a solution of MKNK1 in aqueous assay buffer [50 mM HEPES pH 7.5, 5 mM MgCl2, 1.0 mM dithiothreitol, 0.005% (v/v) Nonidet-P40 (Sigma)] was added and the mixture was incubated for 15 min at 22° C. to allow pre-binding of the test compounds to the enzyme before the start of the kinase reaction. Then the kinase reaction was started by the addition of 3 μL of a solution of adenosine-tri-phosphate (ATP, 3.3 mM=>final conc. in the 5 μL assay volume is 2 mM) and substrate (0.1 μM=>final conc. in the 5 μL assay volume is 0.06 μM) in assay buffer and the resulting mixture was incubated for a reaction time of 30 min at 22° C. The concentration of MKNK1 was adjusted depending of the activity of the enzyme lot and was chosen appropriate to have the assay in the linear range, typical concentrations were in the range of 0.003 μg/mL. The reaction was stopped by the addition of 5 μL of a solution of TR-FRET detection reagents (5 nM streptavidine-XL665 [Cisbio Bioassays, Codolet, France] and 1 nM anti-ribosomal protein S6 (pSer236)-antibody from Invitrogen [#44921G] and 1 nM LANCE EU-W1024 labeled ProteinG [Perkin-Elmer, product no. AD0071]) in an aqueous EDTA-solution (100 mM EDTA, 0.1% (w/v) bovine serum albumin in 50 mM HEPES pH 7.5).
The resulting mixture was incubated for 1 h at 22° C. to allow the formation of complex between the phosphorylated biotinylated peptide and the detection reagents. Subsequently the amount of phosphorylated substrate was evaluated by measurement of the resonance energy transfer from the Eu-chelate to the streptavidine-XL. Therefore, the fluorescence emissions at 620 nm and 665 nm after excitation at 350 nm were measured in a TR-FRET reader, e.g. a Rubystar (BMG Labtechnologies, Offenburg, Germany) or a Viewlux (Perkin-Elmer). The ratio of the emissions at 665 nm and at […] was taken as the measure for the amount of phosphorylated substrate. The data were normalised (enzyme reaction without inhibitor=0% inhibition, all other assay components but no enzyme=100% inhibition).

T1 sequence (Q9BUB5 1-424 isoform Q9BUB5-2 T344D): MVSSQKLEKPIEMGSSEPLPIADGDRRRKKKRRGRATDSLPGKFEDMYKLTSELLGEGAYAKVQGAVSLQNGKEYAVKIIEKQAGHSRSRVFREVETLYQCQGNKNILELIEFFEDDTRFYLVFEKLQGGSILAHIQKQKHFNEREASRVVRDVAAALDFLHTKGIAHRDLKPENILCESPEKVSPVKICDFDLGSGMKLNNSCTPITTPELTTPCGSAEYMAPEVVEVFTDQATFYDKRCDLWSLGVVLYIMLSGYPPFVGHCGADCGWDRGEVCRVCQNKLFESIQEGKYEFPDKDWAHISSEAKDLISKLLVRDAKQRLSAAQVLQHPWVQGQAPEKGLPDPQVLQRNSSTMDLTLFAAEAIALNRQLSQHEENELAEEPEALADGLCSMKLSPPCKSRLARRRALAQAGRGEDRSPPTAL

Row | SMILES | pIC50
1 | COc1cc2[nH]ncc2cc1Nc1ncnc2sc3c(c12)CCN(C(=O)c1ccc(Cl)n1C)C3 [Example 76, (5-Chloro-1-methyl-1H-pyrrol-2-yl){4-[(6-methoxy-1H-indazol-5-yl)amino]-5,8-dihydropyrido[4′,3′:4,5]thieno[2,3-d]pyrimidin-7(6H)-yl}methanone] | 8.00
2 | CN(C)C(=O)N1CCc2c(sc3ncnc(Nc4ccn5nccc5c4)c23)C1 [Example 30, N,N-Dimethyl-4-(pyrazolo[1,5-a]pyridin-5-ylamino)-5,8-dihydropyrido[4′,3′:4,5]thieno[2,3-d]pyrimidine-7(6H)-carboxamide] | 6.32
3 | COc1cc2[nH]ncc2cc1Nc1ncnc2sc3c(c12)CCN(S(C)(=O)=O)C3 [Example 37, N-(6-Methoxy-1H-indazol-5-yl)-7-(methylsulfonyl)-5,6,7,8-tetrahydropyrido[4′,3′:4,5]thieno[2,3-d]pyrimidin-4-amine] | 8.52
4 | COc1cc2[nH]ncc2cc1Nc1ncnc2sc3c(c12)CCN(C(=O)c1cocn1)C3 [Example 81, {4-[(6-Methoxy-1H-indazol-5-yl)amino]-5,8-dihydropyrido[4′,3′:4,5]thieno[2,3-d]pyrimidin-7(6H)-yl}(1,3-oxazol-4-yl)methanone] | 8.30
5 | CS(=O)(=O)N1CCc2c(sc3ncnc(Nc4ccc5[nH]ncc5c4)c23)C1 [Example 38, N-(1H-Indazol-5-yl)-7-(methylsulfonyl)-5,6,7,8-tetrahydropyrido[4′,3′:4,5]thieno[2,3-d]pyrimidin-4-amine] | 7.17
6 | CSc1cc2[nH]ncc2cc1Nc1ncnc2sc3c(c12)CCNC3 [Example 1, N-[6-(Methylsulfanyl)-1H-indazol-5-yl]-5,6,7,8-tetrahydropyrido[4′,3′:4,5]thieno[2,3-d]pyrimidin-4-amine] | 7.62
7 | COc1cc2[nH]ncc2cc1Nc1ncnc2sc3c(c12)CCN(C(=O)N1C[C@@H](C)O[C@H](C)C1)C3 [Example 95, [(2R,6R)-2,6-Dimethylmorpholin-4-yl]{4-[(6-methoxy-1H-indazol-5-yl)amino]-5,8-dihydropyrido[4′,3′:4,5]thieno[2,3-d]pyrimidin-7(6H)-yl}methanone] | 8.52
8 | C[C@@H]1CN(C(=O)N2CCc3c(sc4ncnc(Nc5ccc6[nH]c(=O)sc6c5)c34)C2)C[C@H](C)O1 [Example 31, 6-[(7-{[(2R,6S)-2,6-Dimethylmorpholin-4-yl]carbonyl}-5,6,7,8-tetrahydropyrido[4′,3′:4,5]thieno[2,3-d]pyrimidin-4-yl)amino]-1,3-benzothiazol-2(3H)-one] | 7.23
9 | COc1cc2[nH]ncc2cc1Nc1ncnc2sc3c(c12)CCN(CCN1CCOCC1)C3 [Example 62, N-(6-Methoxy-1H-indazol-5-yl)-7-[2-(morpholin-4-yl)ethyl]-5,6,7,8-tetrahydropyrido[4′,3′:4,5]thieno[2,3-d]pyrimidin-4-amine] | 8.05
10 | CC(C)(C)OC(=O)N1CCc2c(sc3ncnc(Nc4cnc5[nH]ncc5c4)c23)C1 [Example 6, tert-Butyl 4-(1H-pyrazolo[3,4-b]pyridin-5-ylamino)-5,8-dihydropyrido[4′,3′:4,5]thieno[2,3-d]pyrimidine-7(6H)-carboxylate] | 7.33
11 | CC(C)C(=O)N1CCc2c(sc3ncnc(Nc4cc5cn[nH]c5cc4Cl)c23)C1 [Example 56, 1-{4-[(6-Chloro-1H-indazol-5-yl)amino]-5,8-dihydropyrido[4′,3′:4,5]thieno[2,3-d]pyrimidin-7(6H)-yl}-2-methylpropan-1-one] | 7.15
12 | COc1cc2[nH]ncc2cc1Nc1ncnc2sc3c(c12)CCN(CCCn1cccc1)C3 [Example 84, N-(6-Methoxy-1H-indazol-5-yl)-7-[3-(1H-pyrrol-1-yl)propyl]-5,6,7,8-tetrahydropyrido[4′,3′:4,5]thieno[2,3-d]pyrimidin-4-amine] | 8.10
13 | O=C(N1CCOCC1)N1CCc2c(sc3ncnc(Nc4cc5cn[nH]c5cc4Cl)c23)C1 [Example 51, {4-[(6-Chloro-1H-indazol-5-yl)amino]-5,8-dihydropyrido[4′,3′:4,5]thieno[2,3-d]pyrimidin-7(6H)-yl}(morpholin-4-yl)methanone] | 7.24
14 | c1nc(Nc2cc3cn[nH]c3cn2)c2c3c(sc2n1)CN(CCN1CCOCC1)CC3 [Example 60, 7-[2-(Morpholin-4-yl)ethyl]-N-(1H-pyrazolo[3,4-c]pyridin-5-yl)-5,6,7,8-tetrahydropyrido[4′,3′:4,5]thieno[2,3-d]pyrimidin-4-amine] | 7.01
15 | COc1nc2[nH]ncc2cc1Nc1ncnc2sc3c(c12)CCN(C(=O)OC(C)(C)C)C3 [Example 59, tert-Butyl 4-[(6-methoxy-1H-pyrazolo[3,4-b]pyridin-5-yl)amino]-5,8-dihydropyrido[4′,3′:4,5]thieno[2,3-d]pyrimidine-7(6H)-carboxylate] | 8.30
16 | COc1cc2[nH]ncc2cc1Nc1ncnc2sc3c(c12)CCN(C(=O)N1C[C@H](C)O[C@@H](C)C1)C3 [Example 94, [(2S,6S)-2,6-Dimethylmorpholin-4-yl]{4-[(6-methoxy-1H-indazol-5-yl)amino]-5,8-dihydropyrido[4′,3′:4,5]thieno[2,3-d]pyrimidin-7(6H)-yl}methanone] | 8.52
17 | COc1cc2[nH]ncc2cc1Nc1ncnc2sc3c(c12)CCN(CCN1CCCC1=O)C3 [Example 85, 1-(2-{4-[(6-Methoxy-1H-indazol-5-yl)amino]-5,8-dihydropyrido[4′,3′:4,5]thieno[2,3-d]pyrimidin-7(6H)-yl}ethyl)pyrrolidin-2-one] | 8.00
18 | O=c1[nH]c2ccc(Nc3ncnc4sc5c(c34)CCN(CCN3CCOCC3)C5)cc2s1 [Example 63, 6-({7-[2-(Morpholin-4-yl)ethyl]-5,6,7,8-tetrahydropyrido[4′,3′:4,5]thieno[2,3-d]pyrimidin-4-yl}amino)-1,3-benzothiazol-2(3H)-one] | 6.63
19 | CS(=O)(=O)N1CCc2c(sc3ncnc(Nc4cc5cn[nH]c5cn4)c23)C1 [Example 23, 7-(Methylsulfonyl)-N-(1H-pyrazolo[3,4-c]pyridin-5-yl)-5,6,7,8-tetrahydropyrido[4′,3′:4,5]thieno[2,3-d]pyrimidin-4-amine] | 7.60
20 | CC(C)(C)OC(=O)N1CCc2c(sc3ncnc(Nc4cc5cn[nH]c5cn4)c23)C1 [Example 7, tert-Butyl 4-(1H-pyrazolo[3,4-c]pyridin-5-ylamino)-5,8-dihydropyrido[4′,3′:4,5]thieno[2,3-d]pyrimidine-7(6H)-carboxylate] | 7.10
21 | COc1cc2[nH]ncc2cc1Nc1ncnc2sc3c(c12)CCN(C(=O)c1ccn(C)n1)C3 [Example 103, {4-[(6-Methoxy-1H-indazol-5-yl)amino]-5,8-dihydropyrido[4′,3′:4,5]thieno[2,3-d]pyrimidin-7(6H)-yl}(1-methyl-1H-pyrazol-3-yl)methanone] | 7.96
22 | O=C(N1CCOCC1)N1CCc2c(sc3ncnc(Nc4ccc5[nH]ncc5c4)c23)C1 [Example 43, [4-(1H-Indazol-5-ylamino)-5,8-dihydropyrido[4′,3′:4,5]thieno[2,3-d]pyrimidin-7(6H)-yl](morpholin-4-yl)methanone] | 7.32
23 | COc1cc2[nH]ncc2cc1Nc1ncnc2sc3c(c12)CCN(C(=O)N1[C@@H](C)COC[C@@H]1C)C3 [Example 101, [(3S,5S)-3,5-Dimethylmorpholin-4-yl]{4-[(6-methoxy-1H-indazol-5-yl)amino]-5,8-dihydropyrido[4′,3′:4,5]thieno[2,3-d]pyrimidin-7(6H)-yl}methanone] | 8.05
